Consider 19 compounds from US8378117B2 (priority 2005, dated 2013).

One assay concerns the target T1, CB1 receptor (Homo sapiens, UniProt P21554).
T1 construct: expressed in transfected cells
The assay is described as follows: Binding assay for CB1 agonists or inverse agonists (SK-N-MC membranes, [3H]-CP-55,940). Conditions: for inhibition at 1 µM: read-out: CB1 receptor binding percent inhibition, test concentration 1 μM (footnote 1); for inhibition at 0.25 µM: read-out: CB1 receptor binding percent inhibition, test concentration 0.25 μM (footnote 8). The protocol:
(§1) The human CB1 and CB2 receptors were stably expressed in SK-N-MC cells transfected with pcDNA3 CB-1 (human) or pcDNA3 CB-2 (human). The cells were grown in T-180 cell culture flasks under standard cell culture conditions at 37° C. in a 5% CO2 atmosphere. The cells were harvested by trysinization and homogenized in a homogenization buffer (10 mM Tris, 0.2 mM MgCl2, 5 mM KCl, with protease inhibitors aprotinin, leupeptin, pepstatin A and bacitracin) and centrifuged (2000 g). The supernatant was then centrifuged in 2M sucrose (31,300 g) to produce a semi-purified membrane pellet. The pellet was resuspended in homogenization and stored at −80° C.
(§2) On the day of the assay, the pellet was thawed on ice and diluted in assay buffer (50 mM Tris-HCl, 5 mM MgCl2, 2.5 mM EDTA, 0.5 mg/mL fatty acid free bovine serum aldumin, pH 7.5). The diluted membrane pellet was added with buffer, either a test compound or vehicle standard and the radioligand [H]^3+-CP-55,940 (0.2 mM) to the wells of a 96-well polypropylene plate. Non-specific binding was measured in wells containing WIN 55,212 (10 uM). The plate was covered and incubated for 90 minutes at 30° C. The contents were then aspirated onto a Packard Unifilter GF/C filter bottom plate prewet with 0.5% polyethyleneimine. The wells of the polypropylene plate were rinsed and aspirated seven times with a 0.9% saline-0.5% Tween 20 solution. The Unifilter plate was dried, a scintillation cocktail was added to each well and the counts representing binding were quantitated in a TopCount scintillation counter.
(§3) For compounds tested, an IC50 binding value was obtained from percent inhibition studies in which various test concentrations were used. The binding value was calculated by linear regression.

The next assay concerns the target T2, CB2 receptor (Homo sapiens, UniProt P34972).
T2 construct: expressed in transfected cells
The experiment in a line: Binding assay for CB2 agonists or inverse agonists (SK-N-MC membranes, [3H]-CP-55,940). The protocol: as §1
as §2, with “The diluted membrane pellet was added with buffer, either a test compound or vehicle standard and the radioligand [H]^3+-CP-55,940 (0.2 mM) to the wells of a 96-well polypropylene plate. Non-specific binding was measured in wells containing WIN 55,212 (10 uM).” left out
as §3

SMILES strings stand for the structures. Where two headings read alike, the source gives them in different places.

T1 sequence (P21554 whole entry): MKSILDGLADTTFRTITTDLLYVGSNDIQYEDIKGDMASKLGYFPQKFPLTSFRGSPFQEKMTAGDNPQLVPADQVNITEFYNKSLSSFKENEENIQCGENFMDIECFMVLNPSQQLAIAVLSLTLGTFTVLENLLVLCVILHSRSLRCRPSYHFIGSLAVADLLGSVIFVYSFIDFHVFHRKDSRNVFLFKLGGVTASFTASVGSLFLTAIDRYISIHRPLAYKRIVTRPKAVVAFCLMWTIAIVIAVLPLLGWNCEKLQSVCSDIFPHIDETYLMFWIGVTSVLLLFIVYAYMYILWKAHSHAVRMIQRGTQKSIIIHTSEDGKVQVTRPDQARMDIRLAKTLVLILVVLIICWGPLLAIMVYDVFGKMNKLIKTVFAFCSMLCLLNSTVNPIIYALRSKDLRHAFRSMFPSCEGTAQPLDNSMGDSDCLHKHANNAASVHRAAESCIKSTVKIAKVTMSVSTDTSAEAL
T2 sequence (P34972 whole entry): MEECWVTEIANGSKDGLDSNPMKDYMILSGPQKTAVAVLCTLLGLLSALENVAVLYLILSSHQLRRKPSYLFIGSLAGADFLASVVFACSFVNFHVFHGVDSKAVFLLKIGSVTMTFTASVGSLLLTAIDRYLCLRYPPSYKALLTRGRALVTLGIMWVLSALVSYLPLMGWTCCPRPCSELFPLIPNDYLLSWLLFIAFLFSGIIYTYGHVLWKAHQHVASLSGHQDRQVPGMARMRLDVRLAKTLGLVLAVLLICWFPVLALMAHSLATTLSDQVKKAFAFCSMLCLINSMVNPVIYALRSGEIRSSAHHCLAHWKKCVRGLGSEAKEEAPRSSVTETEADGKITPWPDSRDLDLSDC

For `CC12CCC(C1)C(C)(C)[C@H]2NC(=O)c1nn(Cc2ccccc2)c2c1CCCCC2c1ccccc1` (stereo partly drawn) [Cpd 47, 1-benzyl-8-phenyl-1,4,5,6,7,8-hexahydro-cycloheptapyrazole-3-carboxylic acid [(2S)-1,3,3-trimethyl-bicyclo[2.2.1]hept-2-yl]-amide], the IC50 at CB1 receptor (Cannabinoid CB1 Receptor Binding IC50, calculated by linear regression from percent inhibition at various test concentrations) is 100 nM; at CB2 receptor (Cannabinoid CB2 Receptor Binding IC50, calculated by linear regression from percent inhibition at various test concentrations), 30 nM. In addition, the inhibition at 1 µM at CB1 receptor worked out at 91%. At CB2 receptor (test concentration 1 μM (footnote 1)), the “CB2 receptor binding percent inhibition” value is 94%.

For `O=C(NC1CC1)c1nn(C2CCCCC2)c2c1CCCCC2Cc1cccc(F)c1` (centres unmarked) [Cpd 49, 1-cyclohexyl-8-(3-fluoro-benzyl)-1,4,5,6,7,8-hexahydro-cycloheptapyrazole-3-carboxylic acid cyclopropylamide], the inhibition at 1 µM on CB1 receptor stood at 33%. Further, the “CB2 receptor binding percent inhibition” value on CB2 receptor (test concentration not stated) was 9%.

Turning to `O=C(NN1CCCCC1)c1nn(C2CCCCC2)c2c1CCCCC2Cc1cccc(F)c1` (centres unmarked) [Cpd 50, 1-cyclohexyl-8-(3-fluoro-benzyl)-1,4,5,6,7,8-hexahydro-cycloheptapyrazole-3-carboxylic acid piperidin-1-ylamide], at CB1 receptor, the inhibition at 1 µM was determined as 32%. Moreover, the “CB2 receptor binding percent inhibition” value at CB2 receptor (test concentration not stated) is recorded as 31%.

As for `O=C(NC1CCCCC1)c1nn(C2CCCCC2)c2c1CCCCC2Cc1cccc(F)c1` (centres unmarked) [Cpd 51, 1-cyclohexyl-8-(3-fluoro-benzyl)-1,4,5,6,7,8-hexahydro-cycloheptapyrazole-3-carboxylic acid cyclohexylamide], the inhibition at 1 µM on CB1 receptor came out at 36%. The “CB2 receptor binding percent inhibition” value on CB2 receptor (test concentration not stated) turned out to be 30%.

Consider `O=C(NC1CCCC1)c1nn(C2CCCCC2)c2c1CCCCC2Cc1cccc(F)c1` (centres unmarked) [Cpd 52, 1-cyclohexyl-8-(3-fluoro-benzyl)-1,4,5,6,7,8-hexahydro-cycloheptapyrazole-3-carboxylic acid cyclopentylamide], for which, at CB1 receptor, the inhibition at 1 µM is 26%. For the same compound, on CB2 receptor (test concentration not stated), the “CB2 receptor binding percent inhibition” value is 21%.

As to `O=C(NCc1ccccc1)c1nn(C2CCCCC2)c2c1CCCCC2Cc1cccc(F)c1` (centres unmarked) [Cpd 53, 1-cyclohexyl-8-(3-fluoro-benzyl)-1,4,5,6,7,8-hexahydro-cycloheptapyrazole-3-carboxylic acid benzylamide], the inhibition at 1 µM at CB1 receptor was determined as 33%. The “CB2 receptor binding percent inhibition” value on CB2 receptor (test concentration not stated) is listed as 52%.

In the case of `O=C(c1nn(C2CCCCC2)c2c1CCCCC2Cc1cccc(F)c1)N1CCN(c2ccccc2)CC1` (centres unmarked) [Cpd 54, [1-cyclohexyl-8-(3-fluoro-benzyl)-1,4,5,6,7,8-hexahydro-cycloheptapyrazol-3-yl]-(4-phenyl-piperazin-1-yl)-methanone], the inhibition at 1 µM on CB1 receptor is 18%. At CB2 receptor (test concentration not stated), the “CB2 receptor binding percent inhibition” value worked out at 41%.

Turning to `O=C(NC1CC1)c1nn(C2CCCCC2)c2c1CCCCC2Cc1ccc(F)cc1` (centres unmarked) [Cpd 56, 1-cyclohexyl-8-(4-fluoro-benzyl)-1,4,5,6,7,8-hexahydro-cycloheptapyrazole-3-carboxylic acid cyclopropylamide], the inhibition at 1 µM on CB1 receptor worked out at 0%. At CB2 receptor (test concentration not stated), the “CB2 receptor binding percent inhibition” value came to 42%.

In the case of `O=C(NC1CCC1)c1nn(C2CCCCC2)c2c1CCCCC2Cc1ccc(F)cc1` (centres unmarked) [Cpd 57, 1-cyclohexyl-8-(4-fluoro-benzyl)-1,4,5,6,7,8-hexahydro-cycloheptapyrazole-3-carboxylic acid cyclobutylamide], the inhibition at 1 µM at CB1 receptor is 35%. For the same compound, on CB2 receptor (test concentration not stated), the “CB2 receptor binding percent inhibition” value is recorded as 29%.

Take `O=C(NC1CCCC1)c1nn(C2CCCCC2)c2c1CCCCC2Cc1ccc(F)cc1` (centres unmarked) [Cpd 59, 1-cyclohexyl-8-(4-fluoro-benzyl)-1,4,5,6,7,8-hexahydro-cycloheptapyrazole-3-carboxylic acid cyclopentylamide]: at CB1 receptor, the inhibition at 1 µM was 27%. The “CB2 receptor binding percent inhibition” value at CB2 receptor (test concentration not stated) is 60%.

As to `O=C(c1nn(C2CCCCC2)c2c1CCCCC2Cc1ccc(F)cc1)N1CCN(c2ccccc2)CC1` (centres unmarked) [Cpd 60, [1-cyclohexyl-8-(4-fluoro-benzyl)-1,4,5,6,7,8-hexahydro-cycloheptapyrazol-3-yl]-(4-phenyl-piperazin-1-yl)-methanone], the inhibition at 1 µM on CB1 receptor worked out at 38%. On CB2 receptor (test concentration not stated), the “CB2 receptor binding percent inhibition” value came out at 38%.

In the case of `O=C(NCc1ccccc1)c1nn(C2CCCCC2)c2c1CCCCC2Cc1ccc(F)cc1` (centres unmarked) [Cpd 61, 1-cyclohexyl-8-(4-fluoro-benzyl)-1,4,5,6,7,8-hexahydro-cycloheptapyrazole-3-carboxylic acid benzylamide], the inhibition at 1 µM on CB1 receptor was 36%. Besides, the “CB2 receptor binding percent inhibition” value at CB2 receptor (test concentration not stated) is recorded as 71%.

`O=C(NN1CCCCC1)c1nn(C2CCCCC2)c2c1CCCCC2Cc1ccc(F)cc1` (centres unmarked) [Cpd 62, 1-cyclohexyl-8-(4-fluoro-benzyl)-1,4,5,6,7,8-hexahydro-cycloheptapyrazole-3-carboxylic acid piperidin-1-ylamide]: on CB1 receptor, the inhibition at 1 µM amounted to 5%. Further, the “CB2 receptor binding percent inhibition” value on CB2 receptor (test concentration not stated) worked out at 5%.

As for `COC(=O)[C@H](Cc1ccc(F)cc1)NC(=O)c1nn(C2CCCCC2)c2c1CCCCC2Cc1ccc(F)cc1` (stereo partly drawn) [Cpd 63, (2S)-2-{[1-cyclohexyl-8-(4-fluoro-benzyl)-1,4,5,6,7,8-hexahydro-cycloheptapyrazole-3-carbonyl]-amino}-3-(4-fluoro-phenyl)-propionic acid methyl ester], on CB1 receptor, the inhibition at 1 µM came to 29%. On CB2 receptor (test concentration not stated), the “CB2 receptor binding percent inhibition” value worked out at 69%.

`C[C@H](NC(=O)c1nn(C2CCCCC2)c2c1CCCCC2Cc1ccc(F)cc1)c1ccccc1` (stereo partly drawn) [Cpd 64, 1-cyclohexyl-8-(4-fluoro-benzyl)-1,4,5,6,7,8-hexahydro-cycloheptapyrazole-3-carboxylic acid [(1S)-1-phenyl-ethyl]-amide]: the inhibition at 1 µM was 51% at CB1 receptor and 70% on CB2 receptor (test concentration 1 μM (footnote 1), read-out: CB2 receptor binding percent inhibition). Further, the IC50 on CB2 receptor (calculated by linear regression from percent inhibition at various test concentrations, read-out: Cannabinoid CB2 Receptor Binding IC50) is 600 nM.

On to `O=C(NCc1ccc(C(F)(F)F)cc1)c1nn(C2CCCCC2)c2c1CCCCC2Cc1ccc(F)cc1` (centres unmarked) [Cpd 65, 1-cyclohexyl-8-(4-fluoro-benzyl)-1,4,5,6,7,8-hexahydro-cycloheptapyrazole-3-carboxylic acid 4-trifluoromethyl-benzylamide], for which the inhibition at 1 µM on CB1 receptor was determined as 29%. The “CB2 receptor binding percent inhibition” value on CB2 receptor (test concentration not stated) came to 52%.

In the case of `O=C(N[C@@H](CO)c1ccccc1)c1nn(C2CCCCC2)c2c1CCCC[C@@H]2Cc1ccc(F)cc1` [Cpd 66, (8R)-1-cyclohexyl-8-(4-fluoro-benzyl)-1,4,5,6,7,8-hexahydro-cycloheptapyrazole-3-carboxylic acid [(1R)-2-hydroxy-1-phenyl-ethyl]-amide], the inhibition at 1 µM on CB1 receptor amounted to 16%. Moreover, the “CB2 receptor binding percent inhibition” value on CB2 receptor (test concentration not stated) stood at 33%.

As for `O=C(NN1CCCCC1)c1nn(Cc2ccccc2)c2c1CCCCC2c1ccccc1` (centres unmarked) [Cpd 68, 1-benzyl-8-phenyl-1,4,5,6,7,8-hexahydro-cycloheptapyrazole-3-carboxylic acid piperidin-1-ylamide], the inhibition at 0.25 µM on CB1 receptor is 0%; at CB2 receptor (read-out: CB2 receptor binding percent inhibition, test concentration 0.25 μM (footnote 8)) it was 27%.

Turning to `O=C(NCc1cccc(C(F)(F)F)c1)c1nn(Cc2ccccc2)c2c1CCCCC2c1ccccc1` (centres unmarked) [Cpd 69, 1-benzyl-8-phenyl-1,4,5,6,7,8-hexahydro-cycloheptapyrazole-3-carboxylic acid 3-trifluoromethyl-benzylamide], the inhibition at 0.25 µM at CB1 receptor was 23%; at CB2 receptor (test concentration 0.25 μM (footnote 8), read-out: CB2 receptor binding percent inhibition) it was 12%.

For orientation: IC50 means the concentration that gives 50% inhibition.
